# According to patent publication US9017645B2, “Homoglutamic acid derivatives” (Piramal Imaging SA, priority 2009, dated 2015):
# Test system: H460 tumor bearing mice
# Test: Biodistribution in H460 tumor bearing mice
# Type: in vivo, NMRI (nu/nu) mice
# Conditions: for summary: urine: in %; for summary: carcass / summary: organs / summary: recovery: in % (unit assumed)
# Procedure: Biodistribution in H460 tumor bearing mice. To test the pharmacokinetic properties of (2S)-2-amino-5-[3-[^18F]fluoropropyl]hexanedioic acid, the fluorinated compound was examined in H460 tumor bearing mice. NMRI (nu/nu) mice were inoculated with H460 tumor cells 8 to 10 days before the biodistribution studies. 185 kBq of activity of the fluorinated compound was injected into each mouse. n=3 mice were used at every time point. After injection of the F18-labeled compound, mice were sacrificed at the timepoints indicated. All organs were removed and radioactivity was determined using a γ-counter. […] Clearance of radioactivity takes place via the kidneys, with 67.9% of activity being excreted at 1 h p.i.
# [1] = 1 h p.i., H460 tumor bearing mice
smiles,measurement,setting,value
N[C@@H](CCC(CCC[18F])C(=O)O)C(=O)O (stereo partly drawn) [(2S)-2-amino-5-[3-[^18F]fluoropropyl]hexanedioic acid],activity excreted via the kidneys,[1],67.9%
same,uptake in the tumor,[1],10.29 % injected dose per gram of tumor
same,retention of activity in the tumor,"4 h p.i., H460 tumor bearing mice",5.85 % injected dose per gram of tumor
same,tumor to blood ratio,H460 tumor bearing mice,34.7
same,tumor to muscle ratio,H460 tumor bearing mice,62.6
same,Tumor/Tissue bone,timepoint 0.25 h,18.92
same,Tumor/Tissue brain,timepoint 0.25 h,58.25
same,Tumor/Tissue heart,timepoint 0.25 h,17.61
same,Tumor/Tissue kidney,timepoint 0.25 h,0.60
same,Tumor/Tissue muscle,timepoint 0.25 h,28.44
same,Tumor/Tissue skin,timepoint 0.25 h,3.82
same,biodistribution adrenals,timepoint 0.25 h,1.18 % Dosis/g
same,biodistribution blood,timepoint 0.25 h,1.36 % Dosis/g
same,biodistribution bone,timepoint 0.25 h,0.57 % Dosis/g
same,biodistribution brain,timepoint 0.25 h,0.18 % Dosis/g
same,biodistribution fat,timepoint 0.25 h,0.25 % Dosis/g
same,biodistribution gallbladder,timepoint 0.25 h,1.08 % Dosis/g
same,biodistribution heart,timepoint 0.25 h,0.60 % Dosis/g
same,biodistribution intestine,timepoint 0.25 h,2.34 % Dosis/g
same,biodistribution kidney,timepoint 0.25 h,17.49 % Dosis/g
same,biodistribution lung,timepoint 0.25 h,3.22 % Dosis/g
same,biodistribution muscle,timepoint 0.25 h,0.37 % Dosis/g
same,biodistribution ovaries,timepoint 0.25 h,4.04 % Dosis/g
same,biodistribution pancreas,timepoint 0.25 h,26.85 % Dosis/g
same,biodistribution skin,timepoint 0.25 h,2.82 % Dosis/g
same,biodistribution spleen,timepoint 0.25 h,5.15 % Dosis/g
same,biodistribution stomach,timepoint 0.25 h,10.27 % Dosis/g
same,biodistribution tail,timepoint 0.25 h,8.12 % Dosis/g
same,biodistribution thyroid,timepoint 0.25 h,2.05 % Dosis/g
same,biodistribution tumor,timepoint 0.25 h,10.58 % Dosis/g
same,biodistribution uterus,timepoint 0.25 h,4.37 % Dosis/g
same,summary: urine,timepoint 0.25 h,30.17
same,summary: carcass,timepoint 0.25 h,18.07
same,summary: organs,timepoint 0.25 h,39.99
same,summary: recovery,timepoint 0.25 h,88.24
same,Tumor/Tissue bone,timepoint 0.5 h,15.47
same,Tumor/Tissue brain,timepoint 0.5 h,69.00
same,Tumor/Tissue heart,timepoint 0.5 h,34.35
same,Tumor/Tissue kidney,timepoint 0.5 h,1.43
same,Tumor/Tissue muscle,timepoint 0.5 h,54.98
same,Tumor/Tissue skin,timepoint 0.5 h,3.20
same,biodistribution adrenals,timepoint 0.5 h,0.67 % Dosis/g
same,biodistribution blood,timepoint 0.5 h,0.45 % Dosis/g
same,biodistribution bone,timepoint 0.5 h,0.53 % Dosis/g
same,biodistribution brain,timepoint 0.5 h,0.12 % Dosis/g
same,biodistribution fat,timepoint 0.5 h,0.18 % Dosis/g
same,biodistribution gallbladder,timepoint 0.5 h,0.47 % Dosis/g
same,biodistribution heart,timepoint 0.5 h,0.24 % Dosis/g
same,biodistribution intestine,timepoint 0.5 h,1.96 % Dosis/g
same,biodistribution kidney,timepoint 0.5 h,5.64 % Dosis/g
same,biodistribution lung,timepoint 0.5 h,1.62 % Dosis/g
same,biodistribution muscle,timepoint 0.5 h,0.15 % Dosis/g
same,biodistribution ovaries,timepoint 0.5 h,6.23 % Dosis/g
same,biodistribution pancreas,timepoint 0.5 h,21.26 % Dosis/g
same,biodistribution skin,timepoint 0.5 h,2.51 % Dosis/g
same,biodistribution spleen,timepoint 0.5 h,4.37 % Dosis/g
same,biodistribution stomach,timepoint 0.5 h,7.82 % Dosis/g
same,biodistribution tail,timepoint 0.5 h,5.67 % Dosis/g
same,biodistribution thyroid,timepoint 0.5 h,1.58 % Dosis/g
same,biodistribution tumor,timepoint 0.5 h,8.17 % Dosis/g
same,biodistribution uterus,timepoint 0.5 h,2.63 % Dosis/g
same,summary: faeces,timepoint 0.5 h,0%
same,summary: urine,timepoint 0.5 h,48.69
same,summary: carcass,timepoint 0.5 h,10.51
same,summary: organs,timepoint 0.5 h,32.54
same,summary: recovery,timepoint 0.5 h,91.75
same,Tumor/Tissue bone,timepoint 1.0 h,22.16
same,Tumor/Tissue brain,timepoint 1.0 h,93.25
same,Tumor/Tissue heart,timepoint 1.0 h,57.45
same,Tumor/Tissue kidney,timepoint 1.0 h,3.31
same,Tumor/Tissue muscle,timepoint 1.0 h,62.55
same,Tumor/Tissue skin,timepoint 1.0 h,4.24
same,biodistribution adrenals,timepoint 1.0 h,0.61 % Dosis/g
same,biodistribution blood,timepoint 1.0 h,0.30 % Dosis/g
same,biodistribution bone,timepoint 1.0 h,0.46 % Dosis/g
same,biodistribution brain,timepoint 1.0 h,0.11 % Dosis/g
same,biodistribution fat,timepoint 1.0 h,0.14 % Dosis/g
same,biodistribution gallbladder,timepoint 1.0 h,0.57 % Dosis/g
same,biodistribution heart,timepoint 1.0 h,0.18 % Dosis/g
same,biodistribution intestine,timepoint 1.0 h,1.77 % Dosis/g
same,biodistribution kidney,timepoint 1.0 h,3.10 % Dosis/g
same,biodistribution lung,timepoint 1.0 h,1.43 % Dosis/g
same,biodistribution muscle,timepoint 1.0 h,0.16 % Dosis/g
same,biodistribution ovaries,timepoint 1.0 h,1.86 % Dosis/g
same,biodistribution pancreas,timepoint 1.0 h,16.68 % Dosis/g
same,biodistribution skin,timepoint 1.0 h,2.43 % Dosis/g
same,biodistribution spleen,timepoint 1.0 h,2.87 % Dosis/g
same,biodistribution stomach,timepoint 1.0 h,4.47 % Dosis/g
same,biodistribution tail,timepoint 1.0 h,2.33 % Dosis/g
same,biodistribution thyroid,timepoint 1.0 h,1.57 % Dosis/g
same,biodistribution tumor,timepoint 1.0 h,10.29 % Dosis/g
same,biodistribution uterus,timepoint 1.0 h,2.45 % Dosis/g
same,summary: faeces,timepoint 1.0 h,0%
same,summary: urine,timepoint 1.0 h,67.90
same,summary: carcass,timepoint 1.0 h,9.28
same,summary: organs,timepoint 1.0 h,25.76
same,summary: recovery,timepoint 1.0 h,102.93
same,Tumor/Tissue bone,timepoint 2.0 h,18.25
same,Tumor/Tissue brain,timepoint 2.0 h,87.08
same,Tumor/Tissue heart,timepoint 2.0 h,54.23
same,Tumor/Tissue kidney,timepoint 2.0 h,6.15
same,Tumor/Tissue muscle,timepoint 2.0 h,62.45
same,Tumor/Tissue skin,timepoint 2.0 h,3.59
same,biodistribution adrenals,timepoint 2.0 h,0.52 % Dosis/g
same,biodistribution blood,timepoint 2.0 h,0.15 % Dosis/g
same,biodistribution bone,timepoint 2.0 h,0.40 % Dosis/g
same,biodistribution brain,timepoint 2.0 h,0.08 % Dosis/g
same,biodistribution fat,timepoint 2.0 h,0.07 % Dosis/g
same,biodistribution gallbladder,timepoint 2.0 h,0.48 % Dosis/g
same,biodistribution heart,timepoint 2.0 h,0.13 % Dosis/g
same,biodistribution intestine,timepoint 2.0 h,1.23 % Dosis/g
same,biodistribution kidney,timepoint 2.0 h,1.17 % Dosis/g
same,biodistribution lung,timepoint 2.0 h,1.04 % Dosis/g
same,biodistribution muscle,timepoint 2.0 h,0.11 % Dosis/g
same,biodistribution ovaries,timepoint 2.0 h,1.58 % Dosis/g
same,biodistribution pancreas,timepoint 2.0 h,7.70 % Dosis/g
same,biodistribution skin,timepoint 2.0 h,1.97 % Dosis/g
same,biodistribution stomach,timepoint 2.0 h,3.35 % Dosis/g
same,biodistribution tail,timepoint 2.0 h,1.64 % Dosis/g
same,biodistribution thyroid,timepoint 2.0 h,1.37 % Dosis/g
same,biodistribution tumor,timepoint 2.0 h,6.72 % Dosis/g
same,biodistribution uterus,timepoint 2.0 h,2.72 % Dosis/g
same,summary: faeces,timepoint 2.0 h,0.01%
same,summary: urine,timepoint 2.0 h,68.67
same,summary: carcass,timepoint 2.0 h,9.12
same,summary: organs,timepoint 2.0 h,17.68
same,summary: recovery,timepoint 2.0 h,94.72
same,Tumor/Tissue bone,timepoint 4.0 h,15.04
same,Tumor/Tissue brain,timepoint 4.0 h,83.21
same,Tumor/Tissue heart,timepoint 4.0 h,68.93
same,Tumor/Tissue kidney,timepoint 4.0 h,8.78
same,Tumor/Tissue muscle,timepoint 4.0 h,64.19
same,Tumor/Tissue skin,timepoint 4.0 h,5.40
same,biodistribution adrenals,timepoint 4.0 h,0.61 % Dosis/g
same,biodistribution blood,timepoint 4.0 h,0.10 % Dosis/g
same,biodistribution bone,timepoint 4.0 h,0.39 % Dosis/g
same,biodistribution brain,timepoint 4.0 h,0.08 % Dosis/g
same,biodistribution fat,timepoint 4.0 h,0.06 % Dosis/g
same,biodistribution gallbladder,timepoint 4.0 h,0.70 % Dosis/g
same,biodistribution heart,timepoint 4.0 h,0.08 % Dosis/g
same,biodistribution intestine,timepoint 4.0 h,0.97 % Dosis/g
same,biodistribution kidney,timepoint 4.0 h,0.72 % Dosis/g
same,biodistribution lung,timepoint 4.0 h,0.81 % Dosis/g
same,biodistribution muscle,timepoint 4.0 h,0.09 % Dosis/g
same,biodistribution ovaries,timepoint 4.0 h,2.18 % Dosis/g
same,biodistribution pancreas,timepoint 4.0 h,4.51 % Dosis/g
same,biodistribution skin,timepoint 4.0 h,1.31 % Dosis/g
same,biodistribution stomach,timepoint 4.0 h,1.27 % Dosis/g
same,biodistribution tail,timepoint 4.0 h,3.43 % Dosis/g
same,biodistribution thyroid,timepoint 4.0 h,0.98 % Dosis/g
same,biodistribution tumor,timepoint 4.0 h,5.85 % Dosis/g
same,biodistribution uterus,timepoint 4.0 h,1.41 % Dosis/g
same,summary: faeces,timepoint 4.0 h,2.1%
same,summary: urine,timepoint 4.0 h,77.27
same,summary: carcass,timepoint 4.0 h,4.03
same,summary: organs,timepoint 4.0 h,12.00
same,summary: recovery,timepoint 4.0 h,94.87
